# Tested on: Human glioblastoma cells (T98G, Cell line)
# Experiment: Promotion of NGF synthesis: NGF content in culture supernatant by enzyme immunoassay
# Type: cell-based
# Conditions: for content of NGF in the sample solution as compared with the systems not containing any effective ingredient: result in words, both tested concentrations; for content of NGF in the sample solution as compared with the systems not containing any effective ingredient / NGF Content in sample solution: T98G cells; for NGF Content in sample solution: 4 days cultivation, mean ± standard deviation; for Relative NGF content: ratio of example solution to comparative example solution
# Procedure: Human glioblastoma cells (T98G, Cell line) were seeded in a MEM medium containing fetal bovine serum (10%; Gibco), sodium pyruvate (×1; Gibco) and nonessential amino acids (×1; Gibco) in wells of a flat-bottom 96-well plate (Corning), in a cell density of 2×10^4/well, and cultivated in a CO2 incubator (37° C., 5% CO2) for 3 days. The medium was then replaced by an Opti-MEM medium (containing 5 mg/ml of bovine serum albumin). The cultivation was continued for further 6 days with replacing the medium at intervals of 3 days.
# […] After the cultivation, the supernatant was taken as a sample solution.
# On the other hand, 1 ug/ml of an anti-NGF antibody (Promega) solution (50 ul) was added to each well of a 96-well microplate (Nunc), and the plate was allowed to stand overnight at 4° C. After washing the plate with PBS(−) (Nissui Pharmaceuticals), 1% of a bovine serum albumin (Sigma) solution (100 ul) was added to each well of the plate and the plate was allowed to stand at room temperature for 4 hrs. Subsequently, the plate was washed with PBS (−) and the above sample solution (50 ul) was added to each well of the plate. After the reaction at room temperature for one hour, the plate was washed with PBS (−).
# Subsequently, 0.4 unit/ml of an beta-galactosidase-labeled anti-NGF antibody (Boehringer Mannheim) solution (50 ul) was added to each well of the plate, and allowed to react at room temperature for one hour. After washing the plate with PBS (−), 0.5 mg/ml of a 4-methylumbelliferyl-beta-D-galactoside solution (200 ul) was added to each well of the plate, and allowed to react overnight at room temperature. The fluorescence intensity of 4-methylumbelliferone produced was measured on a fluorescence plate reader, and the content of NGF contained in the sample solution was determined using a standard curve obtained from a standard solution (human beta-NGF; PEPRO TECH EC).
# [1] = 20 uM effective ingredient in medium
# [2] = 100 uM effective ingredient in medium
Compound,content of NGF in the sample solution as compared with the systems not containing any effective ingredient,NGF Content in sample solution [1] [pg/mL],Relative NGF content [1],NGF Content in sample solution [2] [pg/mL],Relative NGF content [2]
CC(C)c1cc2c(c(O)c1O)[C@@]13CCCC(C)(C)[C@@H]1C[C@@H]2OC3=O [carnosol of the formula (II)],increases,–,–,–,–
"CC(C)c1cc2c(c(O)c1O)[C@@]13CCCC(C)(C)C1C[C@@H]2OC3=O (stereo partly shown) [Carnosol of formula (II), carnosol]",–,35.4 ± 6.9,5.5,39.9 ± 2.3,6.2
"CC(C)c1cc2c(c(O)c1O)[C@@]1(C(=O)O)CCCC(C)(C)C1CC2 (stereo partly shown) [Carnosic acid of formula (I), carnosic acid]",–,46.0 ± 7.4,7.2,158.5 ± 16.6,24.8
CC(C)c1cc2c(c(O)c1O)[C@@]1(C(=O)O)CCCC(C)(C)[C@@H]1CC2 [carnosic acid of the formula (I)],increases,–,–,–,–

# Reference: US6391344B2, “Method of promoting synthesis of nerve growth factor” (Nagase & Company, Ltd., priority 1999, dated 2002)
